What was measured:
Assay type in all cases: physicochemical
[1] = Ground state electronic absorption spectra (UV-Vis) in DMF; conditions: for log ε at λmax / λmax (Q band absorption): in DMF
Description: Electronic absorption, which is measured by UV-Vis spectroscopy, is one of the best spectroscopic techniques for determination of Pc formation and characterization of Pc compounds. Generally, two absorption bands are observed for Pc structures in their electronic absorption spectra. One band, known as Q, is observed at around 600-750 nm due to the π→π* transitions from the highest occupied molecular orbital (HOMO) to the lowest unoccupied molecular orbital (LUMO) of the Pc ring, while the other band, known as B, or the Soret band, is observed at around 300-450 nm due to transitions from deeper it levels to the LUMO. The ground state electronic absorption spectra of the studied novel Pcs were measured in DMF solution.
The ground state electronic absorption spectra show monomeric behavior evidenced by single (narrow) Q band absorptions, which is typical for metallated complexes. The Q bands appear around 680 nm for the symmetric Pc2 and both asymmetric Pc3 and Pc4 in DMF (Table 1). On the other hand, the non-peripheral Pc5 show approximately 20 nm red-shifted Q band absorption at 700 nm when compared to the peripheral counterparts in the solvent (Table 1). The observed red spectral shifts are typical for Pc molecules with substituents at the non-peripheral positions and are presumably due to linear combinations of the atomic orbitals (LCAO) coefficients at the non-peripheral positions of the HOMO being greater than those at the peripheral positions. As a result, the HOMO level is destabilized more at the non-peripheral site than it is at the peripheral one. Essentially, the energy gap (ΔE) between the HOMO and LUMO becomes smaller, resulting in a bathochromic shift. The 49 nm blue shift for AzaPc1 is caused by the additional nitrogen atoms instead of CH groups in the Pc macrocyclic system. The B-bands are broad due to the superimposition of the B1 and B2 bands in the 340 to 380 nm region.

[2] = Fluorescence lifetime by time correlated single photon counting (TCSPC); conditions: DMF
Description: Fluorescence lifetime (τF) refers to the average time that a molecule stays in its excited state before returning to its ground state by photon emission. The fluorescence lifetime values of the AzaPc1/Pc2-Pc5 compounds were determined by using time correlated single photon counting (TCSPC). All time-resolved fluorescence studies were carried out for the exemplary compounds in solution in DMF, and the fluorescence decays of the macrocycles were concluded in mono exponential curves.

[3] = Photodegradation under light irradiation; conditions: DMF
Source text: Photodegradation is an indicator of the stability of compounds, which is useful for determining the photosensitizing ability of the compounds as PDT agents. The stability of photosensitizers under light irradiation is important for photochemical processes such as PDT because photosensitizers need to survive for a specific period in the body. Photodegradation degree can be detected by photodegradation quantum yield (Φd), which depends on structure, light intensity, solvent used and concentration of a compound of interest. Photodegradation of a compound under light irradiation can be used to study the compound stability, which is important for those molecules intended for the application in photocatalytic reactions. Collapse of absorption spectra without any distortion of the shape of the absorption spectra confirms photo-degradation not associated with photo-transformation into different forms of Pcs absorbing light in the visible region. The spectral changes for all of the exemplary AzaPc1/Pc2-Pc5 compounds were determined in response to light irradiation, and photodegradation occurred without phototransformation, because only Q and B bands were decreased, i.e., no new band formation was observed.
Pc derivatives and their macrocyclic analogs generate singlet oxygen when they are illuminated by an appropriate light. The formed […] via photooxidation reactions. Generally, photodegradation of Pc/Pc-analog compounds by light irradiation results in formation of the phthalamide residue. The photodegradation behavior of AzaPc1/Pc2-Pc5 in DMF were determined. The Φd values of these novel systems are on the order of 10^−4 (Table 2), consistent with values for other Pcs containing different metals and substituents.

[4] = Fluorescence excitation and emission spectra in DMF; conditions: for Stokes shift ΔStokes: difference between excitation and emission maxima
Description: Fluorescence behaviors of the AzaPc1/Pc2-Pc5 compounds were evaluated in DMF solutions. FIGS. 12A-12E show absorption, fluorescence emission and excitation spectra of these complexes.
Excitation maxima appear at 629 nm for AzaPc1, 679 nm for Pc2, 678 nm for Pc3, 682 nm for Pc4 and 700 nm for Pc5 in DMF. Emission maxima appear at 639 nm, 683 nm, 686 nm, 688 nm and 707 nm for AzaPc1/Pc2-Pc5, respectively. The observed Stokes' shifts, which are differences between the excitation and emission wavelength maxima, are between 4 and 10 nm for all of the zinc (II) complexes (Table 1). The observed Stokes' shifts are consistent with those of typical zinc (II) phthalocyanine complexes.

[5] = Fluorescence quantum yield determination; conditions: DMF per text (Table 2 title prints DMSO)
Source text: Fluorescence emission occurs when an orbital electron of a photosensitizer relaxes from its singlet state to ground state upon emitting a photon of light. Fluorescence quantum yield (ΦF) indicates a measure of the efficiency of the fluorescence process and is defined as the ratio of the number of photons emitted to the number of photons absorbed. The fluorescence quantum yields (ΦF) may be determined using established methods described in existing literature. The ΦF values of the present AzaPc1/Pc2-Pc5 compounds are typical for those phthalocyanine compounds (Table 2). Particularly, ΦF values were measured to be 0.11 for AzaPc1, 0.16 for Pc2, 0.17 for Pc3, 0.14 for Pc4 and 0.11 for Pc5 in the exemplary DMF solvent system.

[6] = Singlet oxygen quantum yield, chemical method with DPBF quencher; conditions: DMF, 414 nm
Source text: Transferring of energy from a triplet state of a photosensitizer such as Pc to ground state molecular oxygen leads to the production of singlet oxygen. There is a necessity of high efficiency of energy transfer between the excited triplet state of photosensitizer and the ground state of oxygen in order to generate large amounts of singlet oxygen, essential for PDT applications. The singlet oxygen quantum yield (ΦA) values give the amount of the generated singlet oxygen. This value is an indication of the potential provided by the compounds as photosensitizers in applications where singlet oxygen is required. The ΦΔ values for AzaPc1/Pc2-Pc5 were determined in DMF by a chemical method using 1,3-diphenylisobenzofuran (DPBF) as a quencher. The disappearance of DPBF at 414 nm was monitored using UV-Vis spectrophotometer. Many factors can be responsible for the magnitude of the determined singlet oxygen quantum yield, including triplet excited state energy, ability of substituents and solvents to quench the singlet oxygen, the triplet excited state lifetime and the efficiency of the energy transfer between the triplet excited state and the ground state of oxygen.

[7] = Aggregation studies (UV-Vis) in organic solvents and at different concentrations
Source text: Macrocycle Pcs generate high aggregation tendencies due to the intermolecular interactions that take place between their 18 π-electrons. Accordingly, this self-association process would minimize their solubility in most solvent systems and therefore affect their spectroscopic, photophysical, photochemical, and electrochemical properties. Generally, aggregation is highly dependent on the concentration, temperature, nature of the substituents and/or their position and orientation with respect to the Pc skeleton, nature of the solvent media, and the central metal ion in the Pc-cores.
Pc molecules can form two types of aggregates in dissolved systems—H-type and J-type-depending on the nature, position and/or orientation of the substituents. In general, Pcs form H-type aggregates in solution, whereas J-type aggregates occur rarely. The formation of J-type aggregates among Pc structures is significant, since J-type aggregation is photoactive, while H-type aggregation is not.
The aggregation properties for the AzaPc1/Pc2-Pc5 compounds were determined in different organic solvents, namely, DCM, chloroform, DMF, DMSO, ethanol, methanol, THF and toluene.
Aggregation behaviors for the AzaPc1/Pc2-Pc5 compounds were also investigated in DMF at different concentrations in order to establish a suitable concentration for further photophysical/photochemical studies.

Row | Blue shift of Q band absorption ([1]; DMF, aza analogue versus Pc macrocycle) [nm] | log ε at λmax [1] | λmax (Q band absorption) [1] [nm] | Fluorescence lifetime τF [2] [ns] | Photodegradation quantum yield Φd (×10^−4) [3] | λEm (emission maximum) [4] [nm] | λEx (excitation maximum) [4] [nm] | Stokes shift ΔStokes [4] [nm] | Fluorescence quantum yield ΦF [5] | Singlet oxygen quantum yield ΦΔ [6] | Aggregation in methanol [7] | SMILES
1 | 49 | 5.07 | 629 | 2.46 | 4.30 ×10^−4 | 639 | 629 | 10 | 0.14 | 0.63 | – | C#CCOCc1cc(C)cc(COCC#C)c1Oc1nc2c(nc1Oc1c(COCC#C)cc(C)cc1COCC#C)C1=Nc3c4nc(Oc5c(COCC#C)cc(C)cc5COCC#C)c(Oc5c(COCC#C)cc(C)cc5COCC#C)nc4c4[n]3[Zn][n]3c(c5nc(Oc6c(COCC#C)cc(C)cc6COCC#C)c(Oc6c(COCC#C)cc(C)cc6COCC#C)nc5c3=NC3=NC(=N4)c4nc(Oc5c(COCC#C)cc(C)cc5COCC#C)c(Oc5c(COCC#C)cc(C)cc5COCC#C)nc43)=NC2=N1 [AzaPc1]
2 | – | 5.33 | – | 3.30 | 1.58 ×10^−4 | 683 | 679 | 4 | 0.16 | 0.60 | – | C#CCOCc1cc(C)cc(COCC#C)c1Oc1cc2c(cc1Oc1c(COCC#C)cc(C)cc1COCC#C)C1=Nc3c4cc(Oc5c(COCC#C)cc(C)cc5COCC#C)c(Oc5c(COCC#C)cc(C)cc5COCC#C)cc4c4[n]3[Zn][n]3c(c5cc(Oc6c(COCC#C)cc(C)cc6COCC#C)c(Oc6c(COCC#C)cc(C)cc6COCC#C)cc5c3=NC3=NC(=N4)c4cc(Oc5c(COCC#C)cc(C)cc5COCC#C)c(Oc5c(COCC#C)cc(C)cc5COCC#C)cc43)=NC2=N1 [Pc2]
3 | – | 5.33 | – | 2.84 | 1.40 ×10^−4 | 686 | 678 | 8 | 0.17 | 0.60 | – | C#CCOCc1cc(C)cc(COCC#C)c1Oc1cc2c(cc1Cl)C1=Nc3c4cc(Oc5c(COCC#C)cc(C)cc5COCC#C)c(Cl)cc4c4[n]3[Zn][n]3c(c5cc(Cl)c(Oc6c(COCC#C)cc(C)cc6COCC#C)cc5c3=NC3=NC(=N4)c4cc(Oc5c(COCC#C)cc(C)cc5COCC#C)c(Cl)cc43)=NC2=N1 [Pc3]
4 | – | 5.21 | – | 3.37 | 1.12 ×10^−4 | 688 | 682 | 6 | 0.14 | 0.57 | small H-type aggregates were detected | C#CCOCc1cc(C)cc(COCC#C)c1Oc1ccc2c(c1)C1=NC2=Nc2c3cc(Oc4c(COCC#C)cc(C)cc4COCC#C)ccc3c3[n]2[Zn][n]2c(c4ccc(Oc5c(COCC#C)cc(C)cc5COCC#C)cc4c2=NC2=NC(=N3)c3cc(Oc4c(COCC#C)cc(C)cc4COCC#C)ccc32)=N1 [Pc4]
5 | – | 5.37 | 670 | 1.03 | 0.23 ×10^−4 | 676 | 670 | 6 | 0.17 | 0.56 | – | [Zn+2].c1ccc2c(c1)-c1nc-2nc2[n-]c(nc3nc([n-]c4nc(n1)-c1ccccc1-4)-c1ccccc1-3)c1ccccc21 [Std-ZnPc, zinc(II) phthalocyanine, reference compound]

Source: patent US10723694B2, “Propargyl-functionalized macrocyclic compounds” (KUWAIT UNIVERSITY, priority 2018, dated 2020)
